Test results: article PMC6556873, “Rapid Covalent-Probe Discovery by Electrophile-Fragment Screening” (Journal of the American Chemical Society, 2019)
Read-outs that look alike come from different tables or passages of the source.

Assays:
in vitro [1] = assay: in vitro; parameters: species or system CCD841, HEK293; settings: human, hb2 cells, read-out: HB-2 Cells Viability (%)
in vitro [2] = assay: in vitro; parameters: species or system HB2, HEK293; settings: human, ccd841 cells
BSA = target: T1, BSA (Bos taurus, UniProt P02769); parameters: Intact protein LC/MS covalent labelling, fragments in pools of five, 200 uM each, 4 °C; settings: 24 h, 4 °C, pool of five; 200 µM; covalent
T1 construct: gene ALB

PCAF = target: T2, PCAF (Homo sapiens, UniProt Q92831); parameters: Intact protein LC/MS covalent labelling, fragments in pools of five, 200 uM each, 4 °C; settings: 24 h, 4 °C, pool of five; 200 µM; covalent
T2 construct: gene KAT2B

OTUB2 (OTUB2A) = target: T3, OTUB2 (OTUB2A) (Homo sapiens, UniProt Q96DC9); parameters: Intact protein LC/MS covalent labelling, fragments in pools of five, 200 uM each, 4 °C; settings: 24 h, 4 °C, pool of five; 200 µM; covalent
T3 construct: full length residues 1-234, E. coli BL21(DE3)-R3, His tag removed by TEV, construct 27312 Da
T3 sequence (Q96DC9 1-234): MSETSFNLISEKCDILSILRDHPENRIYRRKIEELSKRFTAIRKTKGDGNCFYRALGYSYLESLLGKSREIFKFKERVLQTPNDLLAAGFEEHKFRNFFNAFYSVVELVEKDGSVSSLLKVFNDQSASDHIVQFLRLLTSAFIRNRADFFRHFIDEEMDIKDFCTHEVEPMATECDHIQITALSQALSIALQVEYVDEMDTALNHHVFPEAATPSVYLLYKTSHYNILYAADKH

NUDT7 = target: T4, NUDT7 (Homo sapiens, UniProt P0C024); parameters: Intact protein LC/MS covalent labelling, fragments in pools of five, 200 uM each, 4 °C; settings: 24 h, 4 °C, pool of five; 200 µM; covalent
T4 construct: residues 14-235, E. coli, pNIC28-Bsa4, N-terminal His6 tag removed by TEV, construct 26672 Da

in vitro [3] = assay: in vitro; parameters: species or system HB2, CCD841; settings: human, hek293 cells

T2 sequence (Q92831 whole entry, the tested form may be a part): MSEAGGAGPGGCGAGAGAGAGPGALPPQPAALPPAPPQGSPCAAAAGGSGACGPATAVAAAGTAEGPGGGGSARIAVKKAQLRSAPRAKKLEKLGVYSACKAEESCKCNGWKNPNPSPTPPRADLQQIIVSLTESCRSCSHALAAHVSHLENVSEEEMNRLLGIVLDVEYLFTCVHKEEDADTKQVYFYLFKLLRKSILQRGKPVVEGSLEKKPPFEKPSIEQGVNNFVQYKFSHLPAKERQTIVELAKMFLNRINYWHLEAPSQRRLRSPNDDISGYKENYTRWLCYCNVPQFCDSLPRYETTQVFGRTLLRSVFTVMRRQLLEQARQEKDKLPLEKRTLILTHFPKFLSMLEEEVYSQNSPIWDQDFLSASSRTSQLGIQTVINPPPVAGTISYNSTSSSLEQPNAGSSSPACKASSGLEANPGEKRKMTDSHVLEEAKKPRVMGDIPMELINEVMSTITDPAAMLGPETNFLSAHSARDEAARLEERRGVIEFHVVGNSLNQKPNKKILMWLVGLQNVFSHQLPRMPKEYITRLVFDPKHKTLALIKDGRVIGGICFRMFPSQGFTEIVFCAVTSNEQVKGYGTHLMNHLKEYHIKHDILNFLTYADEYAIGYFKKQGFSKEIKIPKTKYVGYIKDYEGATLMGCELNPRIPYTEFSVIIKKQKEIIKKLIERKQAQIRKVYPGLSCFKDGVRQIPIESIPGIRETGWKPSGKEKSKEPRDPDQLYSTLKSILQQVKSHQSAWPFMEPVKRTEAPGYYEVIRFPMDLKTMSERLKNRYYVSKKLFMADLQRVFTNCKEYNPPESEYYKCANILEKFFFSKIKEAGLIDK
T1 sequence (P02769 whole entry, the tested form may be a part): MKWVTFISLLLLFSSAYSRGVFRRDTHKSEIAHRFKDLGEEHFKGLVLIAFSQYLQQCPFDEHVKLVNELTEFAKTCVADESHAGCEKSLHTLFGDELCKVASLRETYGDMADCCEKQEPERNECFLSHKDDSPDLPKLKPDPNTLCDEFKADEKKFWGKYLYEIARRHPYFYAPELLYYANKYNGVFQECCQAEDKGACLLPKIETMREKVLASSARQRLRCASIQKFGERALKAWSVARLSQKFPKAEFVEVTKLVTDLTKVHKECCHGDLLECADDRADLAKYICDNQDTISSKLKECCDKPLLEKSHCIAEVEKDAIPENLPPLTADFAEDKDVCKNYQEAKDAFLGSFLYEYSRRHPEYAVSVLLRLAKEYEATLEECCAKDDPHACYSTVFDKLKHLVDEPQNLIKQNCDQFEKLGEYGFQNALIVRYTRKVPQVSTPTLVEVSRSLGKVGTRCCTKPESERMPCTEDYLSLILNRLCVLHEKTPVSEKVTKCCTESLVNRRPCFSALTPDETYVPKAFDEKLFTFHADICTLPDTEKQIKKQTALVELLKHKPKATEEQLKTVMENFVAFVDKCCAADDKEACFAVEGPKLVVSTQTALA
T4 sequence (P0C024 14-235): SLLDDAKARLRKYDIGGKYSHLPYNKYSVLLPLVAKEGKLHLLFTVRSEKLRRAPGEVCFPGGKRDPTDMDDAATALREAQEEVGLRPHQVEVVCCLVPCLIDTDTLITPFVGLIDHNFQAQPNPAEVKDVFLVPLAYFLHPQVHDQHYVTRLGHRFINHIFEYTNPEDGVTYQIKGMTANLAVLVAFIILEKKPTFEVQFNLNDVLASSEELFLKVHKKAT

BSA (BSA)	PCAF (PCAF)	OTUB2 (OTUB2 (OTUB2A))	NUDT7 (NUDT7)	SMILES	viability at 48 h, 10 µM (in vitro [1])	viability at 48 h, 10 µM (in vitro [2])	viability at 48 h, 10 µM (in vitro [3])
0	0	0	0	O=C(CCl)N1CCNC1=O [PCM-0102338]	99.5%	98.6%	86.5%
0	0	0	0	N#CC(c1ccc(F)cc1)N1CCN(C(=O)CCl)CC1 (centres unmarked) [PCM-0102341]	28.6%	60.3%	8.6%
0	0	0.57	0.08	CC(NC(=O)CCl)c1ccc2c(c1)OCCO2 (centres unmarked) [PCM-0102342]	93.8%	87.2%	73.1%
0	0	0	0.12	O=C(CCl)N1CCN(S(=O)(=O)c2ccc(F)c(Cl)c2)CC1 [PCM-0102343]	1.4%	14.3%	2.6%
0	0	0	0.34	CN(Cc1ccc(Cl)cc1)C(=O)CCl [PCM-0102344]	4.3%	24%	2.1%
0	0	0	0.1	CN(C)C(=O)c1cccc(NC(=O)CCl)c1 [PCM-0102345]	52.9%	61.4%	13.8%
0	0	0	0	Cl.O=C(CCl)N1CCN(CC(=O)N2CCCC2)CC1 [PCM-0102346]	98.1%	80.8%	99%
0	0	0	0	C=CC(=O)Nc1ccc2c(c1)OCO2 [PCM-0102347]	109%	106%	79.7%
0	0	0	0	CC(C)(C)c1cc(NC(=O)CCl)on1 [PCM-0102348]	32.8%	59.9%	60.9%
0	0	0	0.59	CN(Cc1ccc(Cl)c(Cl)c1)C(=O)CCl [PCM-0102349]	1.7%	3.9%	1.4%
0	0	0.47	0.31	CC(NC(=O)CCl)c1ccc2ccccc2c1 (centres unmarked) [PCM-0102350]	66%	70.6%	58.5%
0	0	0	0	Cc1noc(NC(=O)CCl)n1 [PCM-0102351]	103%	94.9%	119%
0	0	0	0	Cc1cc(C)c(NC(=O)CCl)c(C)c1 [PCM-0102352]	84.2%	78.5%	72.9%
0	0	0.06	0.19	Cc1ccc(C)c(S(=O)(=O)N2CCN(C(=O)CCl)CC2)c1 [PCM-0102353]	2.1%	37.7%	3.2%
0	0	0	0	Cc1ccc(Cl)cc1NC(=O)CCl [PCM-0102354]	16.3%	44.6%	9.3%
0	0	0.05	0	O=C(CCl)NCC1CCCO1 (centres unmarked) [PCM-0102356]	91.4%	104%	102%

BSA (BSA)	PCAF (PCAF)	OTUB2 (OTUB2 (OTUB2A))	NUDT7 (NUDT7)	SMILES	viability at 48 h, 10 µM (in vitro [1])	viability at 48 h, 10 µM (in vitro [2])	viability at 48 h, 10 µM (in vitro [3])
0	0	0	0	Cl.O=C(CCl)N1CCN(c2ccc(O)cc2)CC1 [PCM-0102357]	31%	76.7%	12.7%
0	0	0	0	Cc1cccc(C(C)C)c1NC(=O)CCl [PCM-0102358]	102%	89.3%	76.5%
0	0	0.12	0	O=C(CCl)NC(=O)NC12CC3CC(CC(C3)C1)C2 [PCM-0102360]	3.1%	73.7%	46.7%
0	0	0	0	O=C(CCl)N1CCN(S(=O)(=O)c2ccc(F)c(F)c2)CC1 [PCM-0102361]	2.5%	48.1%	5.4%
0	0	0	0	O=C1CN(C(=O)CCl)c2ccccc2N1 [PCM-0102362]	79.8%	92.6%	61.4%
0.1	0	0	0.28	O=C1CC(C(F)(F)F)N(C(=O)CCl)c2ccccc2N1 (centres unmarked) [PCM-0102363]	59.3%	74.6%	40.4%
0	0	0	0.09	O=C(CCl)Nc1cccc(F)c1 [PCM-0102364]	25%	45.7%	5.9%
0	0	0	0.12	COC(=O)c1sccc1NC(=O)CCl [PCM-0102367]	75%	85.5%	54%
0	0	0	0	CCc1ccccc1NC(=O)CCl [PCM-0102369]	78.3%	76.1%	56.7%
0	0	0	0	O=C(CCl)NC(=O)Nc1ccccc1F [PCM-0102376]	63.5%	80.5%	67.8%
0	0	0	0	O=C(CCl)N1CCCCCCC1 [PCM-0102377]	36.7%	82.1%	43.5%
0	0	0.05	0.14	O=C(CCl)N1CCN(c2ncc(C(F)(F)F)cc2Cl)CC1 [PCM-0102378]	1.8%	2.9%	1.8%
0	0	0	0.1	Cc1ccc(S(=O)(=O)N2CCN(C(=O)CCl)CC2)cc1C [PCM-0102379]	1.8%	22.6%	2.7%
0	0	0	0.54	O=C(CCl)N1N=C(c2ccco2)CC1c1ccco1 (centres unmarked) [PCM-0102380]	55.7%	63.4%	40.4%
0	0	0	0.11	N#CC(c1ccccc1)N1CCN(C(=O)CCl)CC1 (centres unmarked) [PCM-0102381]	46.7%	66.2%	31.9%

SMILES	BSA (BSA)	PCAF (PCAF)	OTUB2 (OTUB2 (OTUB2A))	NUDT7 (NUDT7)	viability at 48 h, 10 µM (in vitro [1])	viability at 48 h, 10 µM (in vitro [2])	viability at 48 h, 10 µM (in vitro [3])
CN(C(=O)CCl)C1(c2ccccc2Cl)CCCCC1=O (centres unmarked) [PCM-0102359]	0	0	0	0	85.2%	104%	87.5%
